# Data from US9018224B2, “Substituted cyclopropyl compounds useful as GPR119 agonists” (Merck Sharp & Dohme Corp., priority 2011, dated 2015).
# Target: T1, human GPR119 (Homo sapiens, UniProt Q8TDV5)
# T1 sequence (Q8TDV5 1-308 limits assumed): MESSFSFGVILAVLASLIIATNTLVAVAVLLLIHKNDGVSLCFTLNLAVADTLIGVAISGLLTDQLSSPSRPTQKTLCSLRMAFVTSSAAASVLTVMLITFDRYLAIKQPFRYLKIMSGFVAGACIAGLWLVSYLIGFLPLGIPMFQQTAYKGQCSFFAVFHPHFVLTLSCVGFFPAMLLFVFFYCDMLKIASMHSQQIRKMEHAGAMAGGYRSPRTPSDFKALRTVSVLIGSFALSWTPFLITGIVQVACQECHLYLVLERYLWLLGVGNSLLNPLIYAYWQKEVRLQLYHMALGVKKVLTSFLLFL
# Assay: Measurement of GPR119 signaling by cAMP (LANCE cAMP kit or HTRF) in HEK293 cells transfected with human GPR119
# Type: cell-based
# Details: agonist cAMP response in HEK293 cells stably transfected with human GPR119; patent does not say which of the two cAMP formats (LANCE or HTRF)
# Summary of the method: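 LANCE TR-FRET cAMP readout; detection with Eu-SA/biotin-cAMP tracer for 3 h, signal converted to cAMP via standard curve, duplicates, 4-parameter fit vs DMSO basal and internal agonist maximum.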
row,SMILES,EC50 [nM]
1,CNC(=O)Cc1c(F)cc(OCC[C@@H]2C[C@@H]2C2CCN(c3ncc(COC)cn3)CC2)cc1F [Example 227],2.5
2,"CCc1cnc(N2CCC([C@H]3C[C@H]3CCOc3ccc(CC(=O)N4CCC4)cn3)CC2)nc1 [Example 241, 1-(azetidin-1-yl)-2-[6-(2-{(1S,2R)-2-[1-(5-ethylpyrimidin-2-yl)piperidin-4-yl]cyclopropyl}ethoxy)pyridin-3-yl)ethanone]",7.4
3,COCc1cnc(N2CCC([C@H]3C[C@H]3CCOc3ccc(CC(=O)N4CC(C)(C)C4)cc3)CC2)nc1 [Example 13],5.2
4,O=C(Cc1ccc(OCC[C@@H]2C[C@@H]2C2CCN(c3ncc(Cl)cn3)CC2)cc1F)N1CCc2c(C(F)(F)F)n[nH]c2C1 [Example 147],2.9
5,O=C(Cc1ccc(OCC[C@@H]2C[C@@H]2C2CCN(c3ncc(Cl)cn3)CC2)cc1F)N1CCc2[nH]ncc2C1 [Example 139],2
6,"COCc1cnc(N2CCC([C@H]3C[C@H]3CCOc3ccc(Cc4nncs4)c(F)c3)CC2)nc1 [Example 248, 2-[4-((1R,2S)-2-{2-[3-fluoro-4-(1,3,4-thiadiazol-2-ylmethyl)phenoxy]ethyl}cyclopropyl)piperidin-1-yl]-5-(methoxymethyl)pyrimidine]",4.2
7,CC1CCC(C)N1C(=O)Cc1ccc(OCC[C@@H]2C[C@@H]2C2CCN(c3ncc(Cl)cn3)CC2)cc1F (some centres unmarked) [Example 90],7.2
8,CC[C@@H](CO)NC(=O)Cc1ccc(OCC[C@@H]2C[C@@H]2C2CCN(c3ncc(Cl)cn3)CC2)cc1F [Example 103],9.7
9,CC1CCC(N(C)C(=O)Cc2ccc(OCC[C@@H]3C[C@@H]3C3CCN(c4ncc(Cl)cn4)CC3)cc2F)CC1 (some centres unmarked) [Example 161],3.7
10,C[C@H](CO)NC(=O)Cc1ccc(OCC[C@@H]2C[C@@H]2C2CCN(c3ncc(Cl)cn3)CC2)cc1F [Example 113],3.9
11,CC(C)CN(C)C(=O)Cc1ccc(OCC[C@@H]2C[C@@H]2C2CCN(c3ncc(Cl)cn3)CC2)cc1F [Example 166],2
12,COCc1cnc(N2CCC([C@H]3C[C@H]3CCOc3ccc(CC(=O)N(C)C4COC4)c(F)c3)CC2)nc1 [Example 54],2.5
13,CN(CC1CCCCO1)C(=O)Cc1ccc(OCC[C@@H]2C[C@@H]2C2CCN(c3ncc(Cl)cn3)CC2)cc1F (some centres unmarked) [Example 156],2.8
14,CN(CC1CCCCC1)C(=O)Cc1ccc(OCC[C@@H]2C[C@@H]2C2CCN(c3ncc(Cl)cn3)CC2)cc1F [Example 167],7.6
15,"COCc1cnc(N2CCC([C@H]3CC3CCOc3cc(F)c(CCO)c(F)c3)CC2)nc1 (stereo in doubt) [Example 240, 2-{2,6-Difluoro-4-[2-((1R,2R)-2-{1-[5-(methoxymethyl)pyrimidin-2-yl]piperidin-4-yl}cyclopropyl)ethoxy]phenyl}ethanol]",7.2
16,COCc1cnc(N2CCC([C@H]3C[C@H]3CCOc3ccc(CC(=O)N4CC(C)(O)C4)c(F)c3)CC2)nc1 [Example 44],3.6
17,CC1(O)CCN(C(=O)Cc2ccc(OCC[C@@H]3C[C@@H]3C3CCN(c4ncc(Cl)cn4)CC3)cc2F)C1 (some centres unmarked) [Example 74],4.2
18,Cn1nc(C(F)(F)F)c2c1CN(C(=O)Cc1ccc(OCC[C@@H]3C[C@@H]3C3CCN(c4ncc(Cl)cn4)CC3)cc1F)CC2 [Example 189],6
19,COC(=O)C1CN(C(=O)Cc2ccc(OCC[C@@H]3C[C@@H]3C3CCN(c4ncc(Cl)cn4)CC3)cc2F)C1 [Example 115],2.2
20,"O=C(Cc1ccc(OCC[C@@H]2C[C@@H]2C2CCN(c3ncc(Cl)cn3)CC2)cc1)N1CCC1 [Example 1, 1-(azetidin-1-yl)-2-[4-(2-{(1S,2R)-2-[1-(5-chloropyrimidin-2-yl)piperidin-4-yl]cyclopropyl}ethoxy)phenyl]ethanone]",0.79
21,"COc1cnc(N2CCC([C@H]3C[C@H]3CCOc3ccc(CC(=O)N4CC(O)C4)c(F)c3)CC2)nc1 [Example 33, 2-[2-fluoro-4-(2-{(1S,2R)-2-[1-(5-methoxypyrimidin-2-yl)piperidin-4-yl]cyclopropyl}ethoxy)phenyl]-1-(3-hydroxyazetidin-1-yl)ethanone]",2.1
22,O=C(Cc1ccc(OCC[C@@H]2C[C@@H]2C2CCN(c3ncc(Cl)cn3)CC2)cc1F)NC1CCC(F)(F)C1 (some centres unmarked) [Example 95],2.3
23,O=C(Cc1ccc(OCC[C@@H]2C[C@@H]2C2CCN(c3ncc(Cl)cn3)CC2)cc1F)N1CCc2ccncc2C1 [Example 128],2.3
24,O=C(Cc1ccc(OCC[C@@H]2C[C@@H]2C2CCN(c3ncc(Cl)cn3)CC2)cc1)N1CCOCC1 [Example 5],3.6
25,O=C(Cc1ccc(OCC[C@@H]2C[C@@H]2C2CCN(c3ncc(Cl)cn3)CC2)cc1F)N1CCc2[nH]c(C(F)(F)F)nc2C1 [Example 192],2.1
26,O=C(Cc1ccc(OCC[C@@H]2C[C@@H]2C2CCN(c3ncc(Cl)cn3)CC2)cc1F)N1CCc2oc(C3CC3)nc2C1 [Example 143],4.7
27,O=C(Cc1ccc(OCC[C@@H]2C[C@@H]2C2CCN(c3ncc(Cl)cn3)CC2)cc1F)N1CCC(O)CC1 [Example 163],1.7

# Further compounds by falling EC50, results first:
row,EC50 [nM],SMILES
1,1.7,O=C(Cc1ccc(OCC[C@@H]2C[C@@H]2C2CCN(c3ncc(Cl)cn3)CC2)cc1F)N1CCc2nc(C3CC3)sc2C1 [Example 184]
2,1.7,CN(CCO)C(=O)Cc1ccc(OCC[C@@H]2C[C@@H]2C2CCN(c3ncc(Cl)cn3)CC2)cc1F [Example 170]
3,1.5,CC(F)(F)CNC(=O)Cc1ccc(OCC[C@@H]2C[C@@H]2C2CCN(c3ncc(Cl)cn3)CC2)cc1F [Example 105]
4,1.2,CCOCc1cnc(N2CCC([C@H]3C[C@H]3CCOc3ccc(CC(=O)N4CC(OC)C4)c(F)c3)CC2)nc1 [Example 203]
5,1.1,CC1(C)CN(C(=O)Cc2ccc(OCC[C@@H]3C[C@@H]3C3CCN(c4ncc(Cl)cn4)CC3)cc2F)Cc2nnc(C(F)(F)F)n21 [Example 179]
6,1.1,CC1c2nnc(C(F)(F)F)n2C(C)CN1C(=O)Cc1ccc(OCC[C@@H]2C[C@@H]2C2CCN(c3ncc(Cl)cn3)CC2)cc1F (some centres unmarked) [Example 193]
7,1.1,O=C(Cc1ccc(OCC[C@@H]2C[C@@H]2C2CCN(c3ncc(Cl)cn3)CC2)cc1F)N1CCc2cccnc2C1 [Example 130]
8,1.1,COCc1cnc(N2CCC([C@H]3C[C@H]3CCOc3ccc(CC(=O)N4CCOCC4)c(Cl)c3)CC2)nc1 [Example 32]
9,0.98,COc1cnc(N2CCC([C@H]3C[C@H]3CCOc3ccc(CC(=O)N4CC(OC)C4)c(F)c3)CC2)nc1 [Example 34]
10,0.97,O=C(Cc1ccc(OCC[C@@H]2C[C@@H]2C2CCN(c3ncc(Cl)cn3)CC2)cc1F)N1Cc2sccc2C(O)C1 (some centres unmarked) [Example 173]
11,0.95,CC1CN(C(=O)Cc2ccc(OCC[C@@H]3C[C@@H]3C3CCN(c4ncc(Cl)cn4)CC3)cc2F)C1 [Example 64]
12,0.82,CC1c2ncc(C(F)(F)F)n2CCN1C(=O)Cc1ccc(OCC[C@@H]2C[C@@H]2C2CCN(c3ncc(Cl)cn3)CC2)cc1F (some centres unmarked) [Example 180]
13,0.73,Cc1nc2c(o1)CCN(C(=O)Cc1ccc(OCC[C@@H]3C[C@@H]3C3CCN(c4ncc(Cl)cn4)CC3)cc1F)C2 [Example 136]
14,0.68,O=C(Cc1ccc(OCC[C@@H]2C[C@@H]2C2CCN(c3ncc(Cl)cn3)CC2)cc1F)N1CC(O)(C(F)(F)F)C1 [Example 67]
15,0.66,O=C(Cc1ccc(OCC[C@@H]2C[C@@H]2C2CCN(c3ncc(Cl)cn3)CC2)cc1F)N1CC(c2cccnc2)C1 [Example 122]
16,0.6,CC1c2nc(C(F)(F)F)nn2CCN1C(=O)Cc1ccc(OCC[C@@H]2C[C@@H]2C2CCN(c3ncc(Cl)cn3)CC2)cc1F (some centres unmarked) [Example 177]
17,0.55,O=C(Cc1ccc(OCC[C@@H]2C[C@@H]2C2CCN(c3ncc(Cl)cn3)CC2)cc1F)N1CCn2cc(C(F)(F)F)nc2C1 [Example 132]
18,0.41,COCc1cnc(N2CCC([C@H]3C[C@H]3CCOc3cc(F)c(CC(=O)N(C)C4COC4)c(F)c3)CC2)nc1 [Example 226]
19,0.32,"N#Cc1cc(OCC[C@@H]2C[C@@H]2C2CCN(c3ncc(Cl)cn3)CC2)ccc1CC(=O)N1CCC1 [Example 23, 2-[2-(azetidin-1-yl)-2-oxoethyl]-5-(2-{(1S,2R)-2-[1-(5-chloropyrimidin-2-yl)piperidin-4-yl]cyclopropyl}ethoxy)benzonitrile]"
20,0.29,O=C(Cc1ccc(OCC[C@@H]2C[C@@H]2C2CCN(c3ncc(Cl)cn3)CC2)cc1F)N1CCc2cncnc2C1 [Example 129]
21,0.2,COc1cnc(N2CCC([C@H]3C[C@H]3CCOc3cc(F)c(CC(=O)N4CCC4)c(F)c3)CC2)nc1 [Example 214]
22,0.14,"CCOc1cnc(N2CCC([C@H]3C[C@H]3CCOc3cc(F)c(CC(=O)N4CCC4)c(F)c3)CC2)nc1 [Example 229, 1-(azetidin-1-yl)-2-[4-(2-{(1S,2R)-2-[1-(5-ethoxypyrimidin-2-yl)piperidin-4-yl]cyclopropyl}ethoxy)-2,6-difluorophenyl]ethanone]"
23,0.12,CCOc1cnc(N2CCC([C@H]3C[C@H]3CCOc3cc(F)c(CC(=O)N4CC(OC)C4)c(F)c3)CC2)nc1 [Example 236]
